Patent publication US8183048B2, “Assay for screening/ranking antioxidants based on their effects on membrane sterol lateral organization” (Temple University- Of the Commonwealth System of Higher …, priority 2007, dated 2012)
Values joined by “and” are separate entries in the source; they are usually repeats but may differ in a detail not shown here. Equal values may be shown once. “Also recorded” adds a separate entry of the source.

Key:
[1] = AAPH-induced sterol oxidation, initial rate (Ri) vs sterol mol %; assay type: biochemical
From the text: The main purpose of this assay is to determine the Cth value for the antioxidant ALA, which is both water and lipid soluble. […] Ri came from monitoring DHE fluorescence intensity after addition of AAPH. […] In this case (the right panel in the flow chart—FIG. 9), the initial rate of sterol oxidation (Ri), instead of the lag phase, is used as the parameter to reflect the potency of an antioxidant activity. […] The membrane system is: 1-palmitoyl-2-oleoyl-L-α-phosphatidylcholine (POPC)/porcine brain sphingomyelins (pSPMs)/DHE LUVs. This biphasic change is expected from the sterol superlattice theory and is consistent with our previous finding (43). […] In this case, the Cth value is determined to be >>5 mM, if there is any. Vertical bars are the standard deviations from three independently prepared samples. The experiment was carried out at 37-42° C.
The term “Ri” as used herein means the initial rate of sterol oxidation in sec^−1. Ri can be calculated as follows: Ri equals [(Normalized fluorescence intensity of DHE at time t) minus (normalized fluorescence intensity of DHE at time 0)] divided by (t−0). Initial rate of sterol oxidation is calculated from the slope of DHE fluorescence intensity decrease vs time. […] Each sample set spanning a critical mole fraction must be analyzed separately in order to get an accurate picture for that particular set of vesicles. […] One reason for these slight variations is due to the high sensitivity of fluorescence signals. Fluorescence intensity is a relative value, depending on the amount of fluorophore in the cuvette, sample mixing, temperature fluctuations, and quenching due to impurities in the sample. For this reason, each complete set is analyzed separately, but all sets are normalized so that they can be compared to each other. Each sample set is analyzed by examining the first five to ten minutes of fluorescence decay in a sequential manner. […] Within a sample set, the deviation from linearity can be determined, and the number of minutes that will be used to calculate the initial rate can be defined. […]

[2] = AAPH-induced DHE oxidation, antioxidant-induced lag phase vs sterol mol % (sterol superlattice assay); assay type: biochemical
Procedure: Two-component or multi-component models of large unilamellar vesicles (LUVs) containing DHE (dehydroergosterol) are prepared as described above. The sizes of LUVs are in the range of 100-800 nm in diameter. [Please quantify the term “large”]. A prooxidant or a free radical generator is added to a fluorescence cuvette containing LUVs that have been incubated with an antioxidant. In certain embodiments, sterol oxidation was induced by a water-soluble free radical generator, AAPH (2,2′-azobis(2-amidinopropane) dihydrochloride). […] Plotting the lag phase length (τ) (or the initial rate Ri, in the case of lacking lag phase) vs sterol mole fraction in the presence of low dose antioxidant, a biphasic change in (or Ri) at a given Cr (e.g., 20.0, 22.2, 25.0, 33.3, 40.0 and 50.0 mol % sterol) is observed (see FIGS. 4, 8, and 9). This experiment will be repeated at different antioxidant doses. A threshold antioxidant concentration (Cth) is the highest antioxidant concentration at which the biphasic change in τ with sterol mol % may still be detected. The τ, Ri, and Cth values will give information about the antioxidant activity or potency and side effects. The τ and Ri values will give information about the antioxidant activity or potency. […] The ratio of the Ri value in the presence of antioxidants to that in the absence of antioxidants (Ri/Rio) also reflects the potency of the antioxidant. […] The Cth value indicates the potential toxicity of the antioxidant. The lower the Cth value is, the higher the potential damage to cell membranes becomes. The Cth values will be determined based on the capability of the antioxidant to abolish the biphasic change of either τ or Ri with membrane sterol mole fraction. All of the antioxidants, either producing τ or Ri, can be compared and ranked based on the Cth values.
Dehydroergosterol (DHE; Sigma, St. Louis, Mo.) was first purified by HPLC, and then dissolved in CHCl3 to make a stock solution. The concentration of DHE stock solution was calculated by absorbance in dioxane at 326 nm, using an extinction coefficient equal to 10,600 M^−1 cm^−1. DMPC was purchased from Avanti Polar Lipids (Alabaster, Ala.). The concentration of DMPC in stock solution and in LUVs was determined by the method of Bartlett (61). The prooxidant AAPH ((2,2′-azobis(2-amidinopropane) dihydrochloride) was obtained from Aldrich (Milwaukee, Wis.). Ascorbic acid and ascorbyl palmitate were purchased from Sigma.
Calculated amounts of DMPC and DHE were pipetted into tubes and dried under N2 until there was no visible solvent; lipids were then dried overnight under vacuum. Next, lipids were reconstituted at 37° C. with 5.0 mL of 50 mM Tris-HCl buffer at pH 7.0 (containing 0.02% NaN3 and 0.1 mM EDTA), then flushed with N2, and vortexed for 2 min at 37° C. to form multilamellar vesicles (MLVs). The MLVs were cooled to 4° C. for 30 min and then incubated at 37° C. for 30 min. This cooling/heating cycle was repeated three times to ensure an even distribution of lipids within each monolayer of the vesicles. After being exposed to three cycles of heat/cold to allow for thorough mixing, vesicles were left for 4 days at room temperature to come to thermal equilibrium. LUVs were then prepared from MLVs by extrusion (Lipex Biomembranes Inc., Vancouver, BC, Canada). The MLVs were extruded at 37° C. 10 times through two stacked 200 nm Nucleopore polycarbonate filters (Costar) under nitrogen gas pressure to form homogeneous LUVs. To avoid auto-oxidation of sterol, the LUV samples were flushed with argon, sealed, and stored in a dessicator chamber under vacuum at room temperature for seven days prior to sterol oxidation measurements (50). During this time, phosphorus concentration was measured again to determine new phospholipid concentration after loss by extrusion (53).
A typical LUV sample set spanned a predicted critical sterol mole fraction (Cr) for maximal superlattice formation. […]

[3] = sample set 23.8-26.2 mol %, Cr 25.0 mol %, FIG. 5
[4] = sample set 38.8-41.2 mol %, Cr 40.0 mol %, FIG. 6

Compound	lag phase in AAPH-induced sterol oxidation ([1]; AAPH-induced DHE fluorescence decay)	effect on initial rate of sterol oxidation (Ri) ([1]; AAPH-induced DHE oxidation, increasing ALA doses)	Cth (from biphasic change of Ri with sterol content) ([1]; POPC/pSPMs/DHE LUVs, Cr 20.0 mol %, 37-42° C., FIG. 8) [mM]	Cth (threshold antioxidant concentration above which biphasic profile of lag phase at Cr is no longer observable) ([2]; sample set 18.8-21.2 mol % DHE in DMPC, Cr 20.0 mol %, FIG. 4) [µM]	Cth (biphasic change in lag phase with sterol content abolished) [2, 3] [µM]	Cth (biphasic change in lag phase with sterol content abolished) [2, 4] [µM]	Cth (threshold antioxidant concentration for sterol superlattice disruption) ([2]; DMPC/DHE LUVs, 37° C., all three sample sets (Cr 20.0, 25.0, 40.0 mol %))	lag phase length relative to ascorbic acid ([2]; same apparent dose, FIGS. 2 and 3)	concentration at which the biphasic profile of lag phase is obliterated ([2]; sample set spanning Cr 20.0 mol % DHE, FIG. 4) [µM]	concentration at which the biphasic profile of lag phase is obliterated ([2]; sample set spanning Cr 25.0 mol % DHE, FIG. 5) [µM]	concentration at which the biphasic profile of lag phase is obliterated ([2]; sample set spanning Cr 40.0 mol % DHE, FIG. 6) [µM]
O=C(O)CCCCC1CCSS1 (stereo not drawn) [ALA, alpha lipoic acid]	does not generate a lag phase	Ri decreases with increasing ALA doses; also recorded: dose-dependent decrease	> 5								
O=C1O[C@H]([C@@H](O)CO)C(O)=C1O [ascorbic acid]				≥ 30	≥ 30	≥ 120					
CCCCCCCCCCCCCCCC(=O)OC[C@H](O)[C@H]1OC(=O)C(O)=C1O [ascorbyl palmitate]					11.3 to 15.0	13.1 to 15.0	13 to 15 µM and 13.1 to 15.0 µM	much more potent; also recorded: about three	≥ 15.0	≥ 15.0	≥ 15.0
